According to PubChem BioAssay AID2060884 (Molecular Pharmacology Branch, DTP, NCI, 2025):

Tested on: NCI-H929 complex spheroids, viability % test/control
Test: Anticancer human tumor NCI-H929 cell line growth inhibition [RAS];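 also: compound exposure lasted seven days before viability was read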
Details: for IC50: curve of first compound; for viability, T/C: stronger effect = lower value; active = viability on the fitted dose curve at most 10% of control; inactive = the rest
From the text: RAS pathway inhibitors in Combinations in Complex Spheroids
A high-throughput screen of multi-cell type tumor spheroids was designed to identify active combinations of RAS pathway inhibitors and targeted small molecules. Complex spheroids include a stromal component modeled by human endothelial cells (HUVEC) and fibroblasts modeled by human mesenchymal stem cells (MSCs). The concentration ranges selected for each drug and investigational agent were based upon clinically achievable concentrations if the clinical Cmax of the agent was known.
Compounds. The drugs and investigational agents: abemaciclib (NSC768073), cobimetinib (NSC768068), divarasib (GDC6063, NSC841802), docetaxel (NSC628503), GDC-1971 (RLY-1971, NSC841576), gemcitabine (NSC613327), inavolisib (NSC800729), ipatasertib (NSC767898), KB-0742 (NSC834161), MRTX-1133 (NSC836407), osimertinib (NSC779217), RMC-4630 (NSC839698), RMC-6236 (NSC851965), RMC-6291 (NSC852671), Ro-3306 (NSC812927), sapanisertib (NSC764658), SN-38 (NSC673596), staurosporine (NSC755774), SY5609 (NSC837396), and tovorafenib (DAY101, NSC766906), were obtained from the National Cancer Institute (NCI) Developmental Therapeutics Program Chemical Repository. The FDA-approved anticancer drug set is available from the NCI Developmental Therapeutics Program. […] The stock solutions were prepared in dimethyl sulfoxide (DMSO, Sigma-Aldrich, St. Louis, MO, cat. D2650) at 800-fold the tested concentration and stored at -70 degrees C prior to their use. All drugs and investigational agents were tested over a range starting from a high concentration at or near the clinical Cmax and decreasing in half-log increments. If the clinical Cmax for an agent had not been determined, the highest concentration tested was 10 microM.
Cell Culture. All cells were maintained in an incubator at 37 degrees C and 5% CO2 with 95% humidity. The PDC lines were cultured according to standard operating procedures established by the NCI PDMR. All PDCs were thawed and cultured in Matrigel-coated flasks prepared with a working solution of 1X Ham's F-12 nutrient mix, without supplementation (Invitrogen, Waltham, MA, cat. 11765054), 100 U/mL penicillin-streptomycin (Invitrogen, cat. 15140122), and 2.5% Matrigel (Corning Inc., Corning, NY, cat. 354248) for the first three passages. The 362531-283-R-J2-PDC and 782815-120-R-J1-PDC lines were cultured in 6C/Colon 1B media, which includes advanced DMEM/F-12 (Thermo Fisher Scientific, cat. 12634028), 10 mM HEPES (Thermo Fisher Scientific, cat. 15630080), 1X GlutaMAX supplement (Thermo Fisher Scientific, cat. 35050061), 0.1 mg/mL primocin (InvivoGen, San Diego, CA, cat. ant-pm-2), 10% defined fetal bovine serum, heat inactivated (HyClone Laboratories Inc., Logan, UT, cat. SH30070.03HI), 50% L-WRN conditioned media (ATCC, cat. CRL-3276), 1.25 mM N-Acetyl-L-cysteine (Sigma-Aldrich, cat. A9165), 10 mM nicotinamide (Sigma-Aldrich, cat. N0636), 1X B-27 supplement (Thermo Fisher Scientific, cat. 17504044), 1X N-2 supplement (Thermo Fisher Scientific, cat. 17502048), 50 ng/mL human EGF (Thermo Fisher Scientific, cat. PHG0311), and 10 microM Y-27632 dihydrochloride (Tocris Bioscience, cat. 1254). The K12877-001-R-J1-PDC line was cultured in 6I media, which includes all 6C/Colon 1B media plus 10 ng/mL human FGF-10 (PeproTech, cat. 100-26), 1 ng/mL human FGF-2 (PeproTech, cat. 100-18B), 1 µM prostaglandin E2 (Tocris Bioscience, cat. 2296), […] hydrocortisone (Sigma-Aldrich, cat. H4001), and […] bovine insulin (Sigma-Aldrich, cat. I6634). The K86415-001-R-J1-PDC line was cultured in 6D media, which includes all 6C/Colon 1B media components minus the L-WRN conditioned media. The 485176-168-R4-J1-PDC was cultured in PANC media, which includes all 6C/Colon 1B media plus 100 ng/mL human FGF-10 (PeproTech, cat. 100-26), 500 nM SB-431542 (Selleckchem, cat. S1067), and 10 nM gastrin (Tocris Bioscience, cat. 3006). […]

C[C@@H](NC(=O)c1ncnc(N)c1Cl)c1ncc(C(=O)Nc2cc(C(F)(F)F)c(Cl)cn2)s1 + CCn1c(-c2cc(N3CCN(C)CC3)cnc2C(C)OC)c2c3cc(ccc31)-c1csc(n1)CC(NC(=O)C1CC1C)C(=O)N1CCCC(N1)C(=O)OCC(C)(C)C2
inactive: viability, T/C (second compound 0.000949 µM, first compound 0.0316 µM) 104% | viability, T/C (second compound 0.000949 µM, first compound 0.1 µM) 100% | viability, T/C (second compound 0.000949 µM, first compound 0.316 µM) 102% | viability, T/C (second compound 0.000949 µM, first compound 1 µM) 98.9% | viability, T/C (second compound 0.000949 µM, first compound 3.16 µM) 104% | viability, T/C (second compound 0.000949 µM, first compound 10 µM) 112% | viability, T/C (second compound 0.003 µM, first compound 0.0316 µM) 95.8% | viability, T/C (second compound 0.003 µM, first compound 0.1 µM) 99.7% | viability, T/C (second compound 0.003 µM, first compound 0.316 µM) 103% | viability, T/C (second compound 0.003 µM, first compound 1 µM) 101% | viability, T/C (second compound 0.003 µM, first compound 3.16 µM) 105% | viability, T/C (second compound 0.003 µM, first compound 10 µM) 114% | viability, T/C (second compound 0.00949 µM, first compound 0.0316 µM) 91.8% | viability, T/C (second compound 0.00949 µM, first compound 0.1 µM) 104% | viability, T/C (second compound 0.00949 µM, first compound 0.316 µM) 107% | viability, T/C (second compound 0.00949 µM, first compound 1 µM) 111% | viability, T/C (second compound 0.00949 µM, first compound 3.16 µM) 111% | viability, T/C (second compound 0.00949 µM, first compound 10 µM) 115% | viability, T/C (second compound 0.03 µM, first compound 0.0316 µM) 114% | viability, T/C (second compound 0.03 µM, first compound 0.1 µM) 121% | viability, T/C (second compound 0.03 µM, first compound 0.316 µM) 120% | viability, T/C (second compound 0.03 µM, first compound 1 µM) 119% | viability, T/C (second compound 0.03 µM, first compound 3.16 µM) 115% | viability, T/C (second compound 0.03 µM, first compound 10 µM) 89.2% | viability, T/C (second compound 0.0949 µM, first compound 0.0316 µM) 19.9% | viability, T/C (second compound 0.0949 µM, first compound 0.1 µM) 28.3% | viability, T/C (second compound 0.0949 µM, first compound 0.316 µM) 35.9% | viability, T/C (second compound 0.0949 µM, first compound 1 µM) 43.4% | viability, T/C (second compound 0.0949 µM, first compound 3.16 µM) 45.6% | viability, T/C (second compound 0.0949 µM, first compound 10 µM) 18.5% | viability, T/C (second compound 0.3 µM, first compound 0.0316 µM) 6.79% | viability, T/C (second compound 0.3 µM, first compound 0.1 µM) 9.47% | viability, T/C (second compound 0.3 µM, first compound 0.316 µM) 9.99% | viability, T/C (second compound 0.3 µM, first compound 1 µM) 13.3% | viability, T/C (second compound 0.3 µM, first compound 3.16 µM) 14.1% | viability, T/C (second compound 0.3 µM, first compound 10 µM) 8.3%
> 10 µM: IC50 (second compound 0.000949 µM) | IC50 (second compound 0.003 µM) | IC50 (second compound 0.00949 µM) | IC50 (second compound 0.03 µM)
< 0.0316 µM: IC50 (second compound 0.0949 µM) | IC50 (second compound 0.3 µM)

C[C@@H](NC(=O)c1ncnc(N)c1Cl)c1ncc(C(=O)Nc2cc(C(F)(F)F)c(Cl)cn2)s1 + C=CC(=O)N1CCN(c2nc(OCC3CCCN3C)nc3c(F)c(-c4nc(N)cc(C)c4C(F)(F)F)c(Cl)cc23)C(C)C1
inactive: viability, T/C (second compound 0.00316 µM, first compound 0.0316 µM) 106% | viability, T/C (second compound 0.00316 µM, first compound 0.1 µM) 95.9% | viability, T/C (second compound 0.00316 µM, first compound 0.316 µM) 101% | viability, T/C (second compound 0.00316 µM, first compound 1 µM) 97.9% | viability, T/C (second compound 0.00316 µM, first compound 3.16 µM) 101% | viability, T/C (second compound 0.00316 µM, first compound 10 µM) 115% | viability, T/C (second compound 0.01 µM, first compound 0.0316 µM) 91.8% | viability, T/C (second compound 0.01 µM, first compound 0.1 µM) 101% | viability, T/C (second compound 0.01 µM, first compound 0.316 µM) 92.3% | viability, T/C (second compound 0.01 µM, first compound 1 µM) 83.8% | viability, T/C (second compound 0.01 µM, first compound 3.16 µM) 91.2% | viability, T/C (second compound 0.01 µM, first compound 10 µM) 116% | viability, T/C (second compound 0.0316 µM, first compound 0.0316 µM) 95% | viability, T/C (second compound 0.0316 µM, first compound 0.1 µM) 94.1% | viability, T/C (second compound 0.0316 µM, first compound 0.316 µM) 93% | viability, T/C (second compound 0.0316 µM, first compound 1 µM) 87.8% | viability, T/C (second compound 0.0316 µM, first compound 3.16 µM) 100% | viability, T/C (second compound 0.0316 µM, first compound 10 µM) 115% | viability, T/C (second compound 0.1 µM, first compound 0.0316 µM) 85.9% | viability, T/C (second compound 0.1 µM, first compound 0.1 µM) 95.2% | viability, T/C (second compound 0.1 µM, first compound 0.316 µM) 104% | viability, T/C (second compound 0.1 µM, first compound 1 µM) 97.7% | viability, T/C (second compound 0.1 µM, first compound 3.16 µM) 103% | viability, T/C (second compound 0.1 µM, first compound 10 µM) 114% | viability, T/C (second compound 0.316 µM, first compound 0.0316 µM) 99.6% | viability, T/C (second compound 0.316 µM, first compound 0.1 µM) 102% | viability, T/C (second compound 0.316 µM, first compound 0.316 µM) 102% | viability, T/C (second compound 0.316 µM, first compound 1 µM) 95% | viability, T/C (second compound 0.316 µM, first compound 3.16 µM) 97.3% | viability, T/C (second compound 0.316 µM, first compound 10 µM) 117% | viability, T/C (second compound 1 µM, first compound 0.0316 µM) 110% | viability, T/C (second compound 1 µM, first compound 0.1 µM) 101% | viability, T/C (second compound 1 µM, first compound 0.316 µM) 103% | viability, T/C (second compound 1 µM, first compound 1 µM) 108% | viability, T/C (second compound 1 µM, first compound 3.16 µM) 103% | viability, T/C (second compound 1 µM, first compound 10 µM) 111%
> 10 µM: IC50 (second compound 0.00316 µM) | IC50 (second compound 0.01 µM) | IC50 (second compound 0.0316 µM) | IC50 (second compound 0.1 µM) | IC50 (second compound 0.316 µM) | IC50 (second compound 1 µM)
